How the values were obtained:
Format in all cases: cell-based, human
PSN1 cells [1] = test: In vitro uptake and binding selectivity of [18F]rucaparib in PSN1 cells; details: PSN1 cells, unlabelled inhibitor 100 μM for 45 min before [18F]rucaparib (100 nM), further 45 min
Procedure: (§1) AsPC1 (1 × 10^5 cells/well) and PSN1 cells (7.5 × 10^4 cells/well) were seeded separately in 24-well plates (in 300 μL growth medium) and allowed to adhere for at least 20 h. […] To assess [^18F]rucaparib-binding selectivity, unlabelled PARP inhibitors, IMPDH2 or ALDH2 inhibitor, were added (100 μM, in 270 μL growth medium) for 45 min at 37 °C before addition of [^18F]rucaparib (156 kBq, 6.8 GBq/μmol; [^TotalF]rucaparib final concentration: 100 nM), and the cells were incubated at 37 °C for a further 45 min. Cell culture medium was removed, and cells were washed with PBS. Cells were lysed using RIPA buffer for 15 min at room temperature, and the amount of ^18F in the cell lysates was measured using an automated gamma counter (PerkinElmer), normalising for the number of cells.
(§2) Cells were lysed and the amount of ^18F in the cell lysates was measured as above.

AsPC1 cells [2] = test: In vitro uptake and binding selectivity of [18F]rucaparib in AsPC1 cells; details: unlabelled inhibitor 100 μM for 45 min before [18F]rucaparib (100 nM), further 45 min
Procedure: as §1, §2

PSN1 cells [3] = test: Protein expression by flow cytometry after PARP inhibitors or DNA-damaging reagents, PSN1 cells; details: 10 μM, 3 h, flow cytometry
Procedure: (§3) Relative expression of PARP1, 2 and 3, ALDH2 and IMPDH2 was determined by flow cytometry. Cells (1 × 10^6 cells/well) were seeded in 96-well plates in growth medium, washed with FACS buffer (PBS, 2% FBS, 1 mM EDTA, 0.1% NaN3) and centrifuged at 500×g for 5 min. Immunostaining was performed using the Foxp3/transcription factor staining buffer set (eBioscience^TM, USA). Intracellular staining was conducted in permeabilisation buffer for 30 min at 4 °C in the dark using the following antibodies: AF488-conjugated anti-PARP-1 (1:100; sc-80070), AF594-conjugated anti-PARP-2 (1:100; sc-393310), anti-PARP-3 (1:100; sc-390771) or anti-PARP-tankyrase-1/2 (1:100; sc-365897) from Santa Cruz Biotechnology Inc. (USA), AF488-conjugated anti-IMPDH2 (1:500; ab-200770) from Abcam plc. (UK) and AF488-conjugated anti-ALDH2 (1:100, ABIN6817568) from Antibodies-online GmbH (UK). Fixable viability dye ef780 (1:4000; eBioscience^TM; 65-0865-14) was used for live and dead cells discrimination. Fixation of immunostained cells was performed for 15 min at room temperature. Flow cytometry was conducted on the CytoFLEX benchtop flow cytometer (Beckman Coulter, USA), with appropriate lasers and filters, positive and negative controls. Data were analysed using FlowJo^TM (Tree Star Inc., BD Biosciences, USA).
(§4) AsPC1 (1 × 10^5 cells/well) and PSN1 cells (7.5 × 10^4 cells/well) were exposed to methyl methanesulfonate (MMS) or temozolomide (TMZ) (100 μM, in a total of 270 μL growth medium) for 3 h at 37 °C. Additionally, [^18F]rucaparib (500 kBq, 3.6 GBq/μmol; [^TotalF]rucaparib final concentration: 301 nM) or [^18F]olaparib (400 kBq, 8.5 GBq/μmol; [^TotalF]olaparib final concentration: 300 nM) was added, and the cells were incubated at 37 °C for 30 min. Cell culture medium was removed, and cells were washed with PBS. For cell retention, fresh medium (300 μL) was added to the cells. Cells were then further incubated at 37°C for 3 h. Cell culture medium was removed, and the amount of ^18F in the cell lysates was measured as above. Protein expression of the cells after DNA-damaging treatments (or PARP inhibitors 10 μM) was performed using flow cytometry as above.

AsPC1 cells [4] = test: Protein expression by flow cytometry after PARP inhibitors or DNA-damaging reagents, AsPC1 cells; details: 10 μM, 3 h, flow cytometry
Procedure: as §3, §4

`O=c1c(-c2ccc(O)cc2)coc2cc(O[C@@H]3O[C@H](CO)[C@@H](O)[C@H](O)[C@H]3O)ccc12` [daidzin, reference compound] was tested, and the “Blocking of [18F]rucaparib uptake” value (PSN1 cells [1]) was “significantly reduce” and the “Blocking of [18F]rucaparib uptake” value (AsPC1 cells [2]) was “significantly reduce”.

For `COc1c(C)c2c(c(O)c1C/C=C(\C)CCC(=O)OCCN1CCOCC1)C(=O)OC2` [mycophenolate mofetil, reference compound], the “Blocking of [18F]rucaparib uptake” value (PSN1 cells [1]) was “significantly reduce” and the “Blocking of [18F]rucaparib uptake” value (AsPC1 cells [2]) was “significantly reduce”.

In the case of `Cn1ncnc1[C@H]1c2n[nH]c(=O)c3cc(F)cc(c23)N[C@@H]1c1ccc(F)cc1` [talazoparib], the “PARP1 expression (MFI) after exposure of PARP inhibitors” value (PSN1 cells [3]) is reported as “upregulated” and the “PARP1 expression (MFI) after exposure of PARP inhibitors” value (AsPC1 cells [4]) is reported as “upregulated”.

Source: publication PMC9399069, “Imaging PARP with [^18F]rucaparib in pancreatic cancer models” (European Journal of Nuclear Medicine and Molecular Imaging, 2022)
